Laboratory results: patent US7417062B2, “Substituted arylamides” (ChemoCentryx, Inc., priority 2004, dated 2008)
Like-named read-outs stand apart in the source and are kept apart here.

Biological target: T1, CCXCKR2 receptor (Homo sapiens, UniProt P25106)
T1 construct: host or cells: MCF-7 (endogenous) and/or MDA-MB-435S transfected with hRDC1 in pcDNA3.1(+)
Test: Displacement of 125I-labeled SDF-1 from the CCXCKR2 receptor (radioligand binding, determination of IC50 values)
Procedure: The ability of the compounds to displace the labeled chemokine from the CCXCKR2 receptor sites at multiple concentrations was then determined with the screening process.
Compounds that were deemed effective modulators were able to displace at least 50% of the SDF-1 from the CCXCKR2 receptor at concentrations at or below 10 micromolar (μM) and more preferably at concentrations at or below 2 micromolar. At present, especially preferred compounds can displace at least 50% of the SDF-1 from the CCXCKR2 receptor at concentrations at or below 500 nM. Exemplary compounds that met these criteria are reproduced in Table B below. All compounds were prepared as described in the Examples above, or by related methods substituting readily available starting materials.
Reagents and Cells. ^125I-labeled SDF-1 was purchased from Perkin-Elmer Life Sciences, Inc. (Boston, Mass.). The MCF-7 (adenocarcinoma; mammary gland) cell line was obtained from the American Type Culture Collection (Manassas, Va.) or and was cultured in DMEM (Mediatech, Herndon, Va.) supplemented with 10% fetal bovine serum (FBS) (HyClone Logan, Utah) and bovine insulin (0.01 mg/mL) (Sigma, St. Louis, Mo.) at 37° C. in a humidified incubator at a 5% CO2/air mixture. CCXCKR2 transfected MDA-MB-435S were produced as described below. MDA-MB-435S human breast cancer line, was purchased from ATCC, and cultured in DMEM/10% FBS medium. The complete coding sequence of the gene encoding CCXCKR2 (a.k.a.CXCR7, hRDC1), was isolated from MCF-7 cells using μMACs mRNA isolation kit (Miltenyi Biotec, Auburn, Calif.). DNA contamination was removed by DNase digestion via RNeasy columns (Qiagen, Inc., Valencia, Calif.) and cDNA was generated using GeneAmp RNA PCR Core Kit (Applied Biosystems, Foster City, Calif.). PCR of cDNA samples was performed using Taq PCR Master Mix kit (Qiagen, Inc.) and hRDC1 primers harboring 5′ and 3′ Not I sites (hRDC1F 5′-[…]-3′ (SEQ ID NO:1), hRDC1R 5′-[…]-3′ (SEQ ID NO:2)) Not I digested PCR product was ligated into Not I digested pcDNA3.1(+)(Invitrogen, Carlsbad, Calif.) and screened for orientation and sequence confirmed. Plasmid DNA was then isolated from overnight bacterial cultures by Maxiprep (Qiagen, Inc.). Plasmid DNA (10 μg) was added to MDA-MB-435s cells and cells were electroporated (0.22 kV, 960 uF) via Gene Pulser (Biorad laboratories, Hercules, Calif.). 48 hr post-electroporation, cells were transferred to selection medium (1000 ug/ml G418).
Binding Analysis. Target compounds were tested to determine their ability to bind with CCXCKR2 sites on MCF-7 and/or MDA-MB-435S cells. Efficiency-maximized radioligand binding using filtration protocols as described in Dairaghi D J, et al., HHV8-encoded vMIP-I selectively engages chemokine receptor CCR5. Agonist and antagonist profiles of viral chemokines., J. Biol. Chem. 1999 Jul. 30; 274(31): 21569-74 and Gosling J, et al., Cutting edge: identification of a novel chemokine receptor that binds dendritic cell-and T cell-active chemokines including ELC, SLC, and TECK., J. Immunol. 2000 Mar. 15; 164(6):2851-6 was used.
In these assays, MCF-7 and/or MDA-MB-435S cells were interrogated with the target compounds and the ability of these compounds to displace ^125I radiolabeled SDF-1 was assessed using the protocol described in Dairaghi and Gosling. The target compounds were added to the plate to the indicated concentration and were then incubated with cells followed by the addition of radiolabeled chemokine (^125I SDF-1) for 3 hr at 4° C. in the following binding medium (25 mM HEPES, 140 mM NaCl, 1 mM CaCl2, 5 mM MgCl2 and 0.2% bovine serum albumin, adjusted to pH 7.1). All assays were then incubated for 3 hrs at 4° C. with gentle agitation. Following incubation in all binding assays, reactions were aspirated onto PEI-treated GF/B glass filters (Packard) using a cell harvester (Packard) and washed twice (25 mM HEPES, 500 mM NaCl, 1 mM CaCl2, 5 mM MgCl2, adjusted to pH 7.1). […]

[1] = MCF-7 and/or MDA-MB-435S cells expressing CCXCKR2, 125I SDF-1, 3 hr at 4° C., read-out: Activity (ability to displace 125I SDF-1 from CCXCKR2)

T1 sequence (P25106 whole entry): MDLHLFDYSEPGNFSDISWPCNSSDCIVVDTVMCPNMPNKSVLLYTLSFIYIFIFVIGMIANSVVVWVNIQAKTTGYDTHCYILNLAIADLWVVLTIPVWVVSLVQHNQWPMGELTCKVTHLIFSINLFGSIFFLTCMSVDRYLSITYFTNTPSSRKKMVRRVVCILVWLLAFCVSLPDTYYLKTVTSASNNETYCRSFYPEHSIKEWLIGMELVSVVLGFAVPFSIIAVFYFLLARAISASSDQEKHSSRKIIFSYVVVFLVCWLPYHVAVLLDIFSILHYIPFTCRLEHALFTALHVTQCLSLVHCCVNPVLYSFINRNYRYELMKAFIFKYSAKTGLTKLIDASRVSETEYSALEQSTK

Row | SMILES | IC50 [1] | IC50
1 | COc1cc(C(=O)N(C[C@@H]2CCCN2CC2CCCCC2)c2cccc(-c3ccccc3)c2)ccc1OC(F)F [Example 33, N-biphenyl-3-yl-(S)—N-(1-cyclohexylmethyl-pyrrolidin-2-ylmethyl)-4-difluoromethoxy-3-methoxy-benzamide] | < 500 nM | 
2 | COc1cc(C(=O)N(Cc2ccc3ccccc3n2)C[C@@H]2C[C@@H]3CCCC[C@@H]3N2)cc2c1OC(C)(C)O2 [Example 70, 7-Methoxy-2,2-dimethyl-benzo[1,3]dioxole-5-carboxylic acid [(2S,3aS,7aS)-1-(octahydro-indol-2-yl)methyl]-quinolin-2-ylmethyl-amide] | < 500 nM | 
3 | COc1cc(C(=O)N(Cc2cnc3ccccc3n2)C[C@@H]2C[C@@H]3CCCC[C@@H]3N2)cc2c1OC(C)(C)O2 [Example 68, 7-Methoxy-2,2-dimethyl-benzo[1,3]dioxole-5-carboxylic acid [(2S,3aS,7aS)-1-(octahydro-indol-2-yl)methyl]-quinoxalin-2-ylmethyl-amide] | < 500 nM | 
4 | COc1ccc(C(=O)N(C[C@@H]2CCCN2CC2CC2)c2cccc(-c3cccnc3)c2)cc1OC [Example 35, (S)—N-(1-Cyclopropylmethyl-pyrrolidin-2-ylmethyl)-3,4-dimethoxy-N-(3-pyridin-3-yl-phenyl)-benzamide] | < 2000 nM | 
5 | COc1cc(C(=O)N(CCC2CCCN2C)Cc2ccc3ccccc3c2)cc(OC)c1OC (centres unmarked) [Example 5, 3,4,5-Trimethoxy-N-[2-(1-methyl-pyrrolidin-2-yl)-ethyl]-N-naphthalen-2ylmethyl-benzamide] | < 500 nM | 
6 | COc1cc(C(=O)N(Cc2nc(-c3ccccc3)cs2)C[C@@H]2C[C@@H]3CCCC[C@@H]3N2)cc2c1OC(C)(C)O2 [Example 51, 7-Methoxy-2,2-dimethyl-benzo[1,3]dioxole-5-carboxylic acid (octahydro-indol-2-ylmethyl)-(4-phenyl-thiazol-2-ylmethyl)-amide] | < 500 nM | 
7 | COc1ccc(C(=O)N(Cc2cc3ccccc3o2)C[C@@H]2CCCN2CC2CCCCC2)cc1OC [Example 3, N-benzofuran-2-ylmethyl-N—(S)-(1-cyclohexylmethyl-pyrrolidin-2-ylmethyl)-3,4-dimethoxy-benzamide] | < 500 nM | 
8 | COc1cc(C(=O)N(Cc2ccc3cccnc3n2)C[C@@H]2CCCN2C[C@H]2C[C@H]3CC[C@@H](C2)N3)cc2c1OC(C)(C)O2 [Example 41] |  | < 500 nM
9 | COc1ccc(C(=O)N(C[C@@H]2CCCN2CC2CC2)c2cccc(-c3cccc(C#N)c3)c2)cc1OC [Example 34, N-(3′-Cyano-biphenyl-3-yl)-(S)—N-(1-cyclopropylmethyl-pyrrolidin-2-ylmethyl)-3,4-dimethoxy-benzamide] | < 10000 nM | 
10 | COc1cc(C(=O)N(CCC2CCCN2C)Cc2csc3ccccc23)cc(OC)c1OC (centres unmarked) [Example 12, N-Benzo[b]thiophen-3-ylmethyl-3,4,5-trimethoxy-N-[2-(1-methyl-pyrrolidin-2-yl)-ethyl]-benzamide] | < 2000 nM | 
11 | COc1ccc(C(=O)N(C[C@@H]2CCCN2CC2CC2)c2cccc(-c3ccc(N(C)C)cc3)c2)cc1OC [Example 37, (S)—N-(1-Cyclopropylmethyl-pyrrolidin-2-ylmethyl)-N-(4′-dimethylamino-biphenyl-3-yl)-3,4-dimethoxy-benzamide] | < 10000 nM | 
12 | COc1cc(C(=O)N(Cc2cc3ccccc3s2)C[C@@H]2C[C@@H]3CCCC[C@@H]3N2)cc2c1OC(C)(C)O2 [Example 61, 7-Methoxy-2,2-dimethyl-benzo[1,3]dioxole-5-carboxylic acid benzo[b]thiophen-2-ylmethyl-[(2S,3aS,7aS)-1-(octahydro-indol-2-yl)methyl]-amide] | < 500 nM | 
13 | COc1cc(C(=O)N(Cc2cc3ccccc3o2)C[C@@H]2C[C@@H]3CCCC[C@@H]3N2)cc2c1OC(C)(C)O2 [Example 57, 7-Methoxy-2,2-dimethyl-benzo[1,3]dioxole-5-carboxylic acid benzofuran-2-ylmethyl-[(2S,3aS,7aS)-1-(octahydro-indol-2-yl)methyl]-amide] | < 500 nM | 
14 | COc1ccc(C(=O)N(Cc2ccc3ccccc3c2)C[C@@H]2CCCN2CC2CCCCC2)cc1OC [Example 1, N—(S)-(1-Cyclohexylmethyl-pyrrolidine-2-ylmethyl)-3,4-dimethoxy-N-naphthalen-2-ylmethyl-benzamide] | < 500 nM | 
15 | COc1ccc(C(=O)N(Cc2cc3ccccc3s2)C[C@@H]2CCCN2CC2CCCCC2)cc1OC [Example 30, N-Benzo[b]thiophen-2-yl methyl-(S)—N-(1-cyclohexylmethyl-pyrrolidin-2-ylmethyl)-3,4-dimethoxy-benzamide] | < 500 nM | 
16 | COc1cc(C(=O)N(Cc2cc3ccccc3o2)C[C@@H]2CCCN2CC2CCCCC2)cc(OC)c1OC [Example 4, N-Benzofuran-2-ylmethyl-N—(S)-(1-cyclohexylmethyl-pyrrolidin-2-ylmethyl)-3,4,5-trimethoxy-benzamide] | < 500 nM | 
17 | COc1cc(C(=O)N(CCCN2CCCCC2C)c2cccc(-c3ccccc3)c2)cc(OC)c1OC (centres unmarked) [Example 17, N-Biphenyl-3-yl-3,4,5-trimethoxy-N-[3-(2-methyl-piperidin-1-yl)-propyl]-benzamide] | < 500 nM | 
18 | COc1cc(C(=O)N(CCC2CCCN2C)Cc2nc3ccccc3s2)cc(OC)c1OC (centres unmarked) [Example 13, N-Benzothiazol-2-ylmethyl-3,4,5-trimethoxy-N-[2-(1-methyl-pyrrolidin-2-yl)-ethyl]-benzamide] | < 500 nM | 
19 | COc1ccc(C(=O)N(Cc2nc3ccccc3s2)C[C@@H]2CCCN2CC2CCCCC2)cc1OC [Example 27, N-Benzothiazol-2-yl methyl-(S)—N-(1-cyclohexylmethyl-pyrrolidin-2-ylmethyl)-3,4-dimethoxy-benzamide] | < 500 nM | 
20 | COc1cc(C(=O)N(CCC2CCCN2C)Cc2nc3ccccc3n2C)cc(OC)c1OC (centres unmarked) [Example 14, 3,4,5-Trimethoxy-N-(1-methyl-1H-benzoimidazol-2-ylmethyl)-N-[2-(1-methyl-pyrrolidin-2-yl)-ethyl]-benzamide] | < 10000 nM | 
21 | COc1ccc(C(=O)N(C[C@@H]2CCCN2CC2CCCCC2)c2cccc(-c3csc(C)n3)c2)cc1OC | < 2000 nM | 
22 | COc1cc(C(=O)N(C[C@@H]2CCCN2CC2CC2)c2cccc(-c3ccccc3)c2)ccc1OC(F)F [Example 32, N-Biphenyl-3-yl-(S)—N-(1-cyclopropylmethyl-pyrrolidin-2-ylmethyl)-4-difluoromethoxy-3-methoxy-benzamide] | < 500 nM | 
23 | COc1cc(C(=O)N(CCC2CCCN2C)CC2=C(Cl)c3cc(F)ccc3OC2)cc(OC)c1OC (centres unmarked) | < 500 nM | 
24 | COc1ccc(C(=O)N(Cc2cnc3ccccc3c2)C[C@@H]2CCCN2CC2CCCCC2)cc1OC [Example 2, N—(S)-(1-Cyclohexylmethyl-pyrrolidin-2-ylmethyl)-3,4-dimethoxy-N-quinolin-3-ylmethyl-benzamide] | < 2000 nM | 
25 | COc1ccc(C(=O)N(C[C@@H]2CCCN2CC2CCCCC2)c2cccc(-n3ccnn3)c2)cc1OC [Example 76, N-((S)-1-Cyclohexylmethyl-pyrrolidin-2-ylmethyl)-3,4-dimethoxy-N-(3-[1,2,3]triazol-1-yl-phenyl)-benzamide] | < 10000 nM | 
26 | COc1cc(C(=O)N(Cc2cnc3ccccc3c2)C[C@@H]2CCCN2C2CCC2)cc2c1OC(C)(C)O2 | < 10000 nM | 
